Experimental findings from patent US9617310B2 (priority 2013, dated 2017) are described below.

In general, EC50 refers to the midpoint of the concentration-response curve. The Ki is the dissociation constant of the complex between target and ligand, obtained from inhibition or displacement. A high value points to weaker binding.

The subject of assay [1] is NS3/4a protease inhibitor resistant variant R155K in genotype 1a transient HCV replicon. Put plainly: Transient-transfected HCV replicon, genotype 1a R155K. It counts as cell-based. The conditions noted are these: Hepatitis C virus, 72 h, read-out: EC50 1A R155K. A general note: In antiviral work, replicon cells carry a viral genome segment that copies itself.
Assay [2] relates to genotype 4a stable HCV replicon (ED43) in Huh-7-derived cells. Put plainly: Stable subgenomic HCV replicon, genotype 4a, Renilla luciferase. It counts as cell-based. The conditions noted are these: Hepatitis C virus, 72 h, read-out: EC50 4A RLUC. How it is done: (§1) Antiviral potency (EC50) was determined in both stable subgenomic HCV replicon cell lines and transient-transfected HCV replicon cells. The term half maximal effective concentration (EC50) refers to the concentration of a drug which induces a response halfway between the baseline and maximum after the exposure time specified below.
(§2) Stable subgenomic HCV replicons for genotype 1a, 1b, 2a, 3a, and 4a were established in Huh-7-derived cells as described by Lohmann et al (Lohmann V, Korner F, Koch J, et al Replication of subgenomic hepatitis C virus RNAs in a hepatoma cell line. Science 1999; 285:119-3). Each stable cell line contains a bicistronic HCV replicon that encodes a humanized Renilla luciferase (hRLuc) reporter gene fused to a selectable neomycin-resistance gene, followed by an EMCV IRES and the NS3-NS5B coding region of HCV. […] Luciferase activity was measured as a marker for intracellular HCV replication levels.
(§3) The genotype 1a stable replicon was derived from the H77 HCV strain and contained adaptive mutations P1496L and S2204I. The genotype 1b stable replicon was derived from the Con1 HCV strain and contained adaptive mutations E1202G, T1280I, and K1846T. […] The genotype 3a stable replicon was derived from the S52 HCV strain and contained adaptive mutations P1121 L, A1198T and S2210I (equivalent to S2204I in genotype 1). The genotype 4a stable replicon was derived from the ED43 HCV strain and contained adaptive mutations Q1691R and S2204I. All replicon cell lines were propagated in Huh-7-derived cells and maintained in Dulbecco's modified Eagle's Medium (DMEM) supplemented with 10% fetal bovine serum (FBS) and 0.5 mg/ml G418.
(§4) To perform EC50 assays, cells from each HCV replicon were dispensed into 384-well plates. Compounds were dissolved in DMSO at a concentration of 10 mM and diluted in DMSO using an automated pipetting instrument. Three-fold serially diluted compounds were directly added to the cells using an automated instrument. DMSO was used as a negative (solvent; no inhibition) control, and a combination of three HCV inhibitors including a protease inhibitor; an NS5A inhibitor and a nucleoside inhibitor was used at concentrations >100×EC50 as a positive control (100% inhibition). Seventy-two hours later, cells were lysed and Renilla luciferase activity were quantified as recommended by the manufacturer (Promega-Madison, Wis.). Non-linear regression was performed to calculate […], values.

The target of the next assay is T1, NS3 genotype 1b protease (Hepatitis C virus genotype 1b, UniProt Q9WMX2, E1202G).
T1 construct: Purified NS3 protease domain (amino acids 1-181) of the genotype 1b and 3a virus were generated as above; K3 hexahistidine tag (N); rTEV protease cleavage site (N); made in house; host or cells: E. coli BL21AI
T1 sequence (Q9WMX2 1027-1207 E1202G, other chains not shown): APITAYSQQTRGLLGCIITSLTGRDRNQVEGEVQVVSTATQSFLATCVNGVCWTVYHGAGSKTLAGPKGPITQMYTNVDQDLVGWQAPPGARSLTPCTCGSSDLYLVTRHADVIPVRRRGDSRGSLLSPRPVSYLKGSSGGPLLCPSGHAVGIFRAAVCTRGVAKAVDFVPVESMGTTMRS
Kind of assay: Ki determination, NS3 protease genotype 1b (fluorogenic depsipeptide substrate). It counts as biochemical. The conditions noted are these: NS3 protease domain genotype 1b, NS4A peptide. An excerpt: Ki Determination for Genotypes 1b and 3a NS3 Protease.
Purified NS3 protease domain (amino acids 1-181) of the genotype 1b and 3a virus were generated as above. The internally quenched fluorogenic depsipeptide substrate Ac-DED(Edans)-EEAbuψ[COO]ASK(Dabcyl)-NH2 and a synthetic peptide containing the hydrophobic core residues of the NS4A protein cofactor ([…]; NS4A peptide) were obtained from Anaspec, Inc. (San Jose, Calif.). Other chemicals and biochemicals were of reagent grade or better and were purchased from standard suppliers.
Reactions were run at room temperature in buffer consisting of 50 mM HEPES, 40% glycerol, 0.05% Triton X-100, 10 mM DTT, and 10% DMSO. The final assay solutions contained 50 pM NS3 genotype 1b protease or 200 pM genotype 3a protease, 20 μM NS4A peptide, and 4 μM substrate (genotype 1b) or 2 μM substrate (genotype 3a). Inhibitor concentrations varied from 100 nM to 5 pM in 3-fold dilutions, and no-inhibitor controls were included.
Compound dilutions were made in DMSO at 20× final concentration. Reaction mixtures were prepared in 96-well assay plates. A solution of enzyme and NS4A peptide in assay buffer (25 μL volume with both reagents at 4× final concentration) was mixed with 45 μL assay buffer and 5 μL of either inhibitor or DMSO, and pre-incubated at room temperature for 1 hour. The reaction was started by addition of 25 μL substrate solution at 4× final concentration. Plates were mixed vigorously for 5-10 seconds and reactions were allowed to proceed for 90 minutes. Fluorescence was measured every 30 s between 90 and 120 minutes reaction time using a Tecan InfiniTe M1000 or PerkinElmer Envision multimode plate reader with an excitation wavelength of 340 nm and an emission wavelength of 490 nm.
Rates were calculated from the progress curves at steady state, in the time frame of 90-120 minutes after addition of substrate. To determine the Ki, rates were plotted as a function of inhibitor concentration, and the data were fit with equation 1 (Morrison, J. F., Biochimica et Biophysica Acta 1969, 185, 269-286) to calculate Ki^app using GraphPad Prism 5. Active fraction of enzyme was determined by active site titration with known potent inhibitors. Ki was calculated from Ki^app/(1+[[S]/Km]).

Assay [3] concerns genotype 3a transient HCV replicon (S52) in Huh-7-derived cells. Kind of assay: Transient-transfected HCV replicon, genotype 3a wild type. It counts as cell-based. The note with it: Hepatitis C virus; transient-transfected replicon genotype 3a wild type, 72 h; read-out: EC50 3A WT.
In assay [4] the test system is genotype 1a (H77) wild-type transient HCV replicon in Huh-7-derived cells. Put plainly: Transient-transfected HCV replicon, genotype 1a wild type. It counts as cell-based. The conditions noted are these: Hepatitis C virus; transient-transfected replicon genotype 1a wild type, 72 h; read-out: EC50 1A WT.
Assay [5] concerns genotype 1b wild-type transient HCV replicon in Huh-7-derived cells. Put plainly: Transient-transfected HCV replicon, genotype 1b wild type. The note with it: Hepatitis C virus; transient-transfected replicon genotype 1b wild type, 72 h; read-out: EC50 1B WT. It counts as cell-based.
The subject of assay [6] is genotype 1a stable HCV replicon (H77) in Huh-7-derived cells. Put plainly: Stable subgenomic HCV replicon, genotype 1a, Renilla luciferase. It counts as cell-based. The note with it: Hepatitis C virus, stable replicon genotype 1a, 72 h, read-out: EC50 1A RLUC. How it is done: as §1, §2, §3, §4

For the compound `COc1ccc2nc3c(nc2c1)O[C@@H]1C[C@@H](C(=O)N[C@]2(C(=O)NS(=O)(=O)C4CC4)C[C@H]2C(F)F)N(C1)C(=O)[C@H](C(C)(C)C)NC(=O)O[C@@H]1C[C@@H]2C[C@@H]2[C@H]1CCCCC3(F)F` (racemic) [Example 9, (1aS,2aR,6S,9S,11R,23aR,23bS)-6-tert-butyl-N-[(1R,2R)-1-[(cyclopropylsulfonyl)carbamoyl]-2-(difluoromethyl)cyclopropyl]-19,19-difluoro-15-methoxy-4,7-dioxo-1a,2,2a,4,5,6,7,10,11,19,20,21,22,23,23a,23b-hexadecahydro-1H,9H-8,11-methanocyclopropa[4′,5′]cyclopenta[1′,2′:18,19][1,10,3,6]dioxadiazacyclononadecino[11,12-b]quinoxaline-9-carboxamide], the EC50 is 1.1 nM in assay [1]; 1.4 nM in assay [2]; 2.5 nM in assay [3]; 1.3 nM in assay [4]; 0.71 nM in assay [5]; 1.7 nM in assay [6]. The compound also yielded a Ki on NS3 genotype 1b protease of 0.02 nM.

Turning to `CC(C)(C)[C@@H]1NC(=O)O[C@@H]2C[C@@H]3C[C@@H]3[C@H]2CCCCC(F)(F)c2nc3cc(F)c(F)cc3nc2O[C@@H]2C[C@@H](C(=O)N[C@]3(C(=O)NS(=O)(=O)C4CC4)C[C@H]3C(F)F)N(C2)C1=O` (racemic) [Example 15, (1aS,2aR,6S,9S,11R,23aR,23bS)-6-tert-butyl-N-[(1R,2R)-1-[(cyclopropylsulfonyl)carbamoyl]-2-(difluoromethyl)cyclopropyl]-15,16,19,19-tetrafluoro-4,7-dioxo-1a,2,2a,4,5,6,7,10,11,19,20,21,22,23,23a,23b-hexadecahydro-1H,9H-8,11-methanocyclopropa[4′,5′]cyclopenta[1′,2′:18,19][1,10,3,6]dioxadiazacyclononadecino[11,12-b]quinoxaline-9-carboxamide], the EC50 in assay [1] came out at 1.2 nM; in assay [2], 2.6 nM; in assay [3], 11 nM; in assay [4], 1.6 nM; in assay [5], 1.3 nM; in assay [6] it was 3.5 nM. Moreover, the affinity on NS3 genotype 1b protease, expressed as Ki, was 0.03 nM.

`COc1ccc2nc3c(nc2c1)O[C@@H]1C[C@@H](C(=O)N[C@]2(C(=O)NS(=O)(=O)C4CC4)C[C@H]2C(F)F)N(C1)C(=O)[C@H](C(C)(C)C)NC(=O)O[C@@H]1C[C@@H]2C[C@@H]2[C@H]1CCCCC3` [Example 1, (1aS,2aR,6S,9S,11R,23aR,23bS)-6-tert-butyl-N-[(1R,2R)-1-[(cyclopropylsulfonyl)carbamoyl]-2-(difluoromethyl)cyclopropyl]-15-methoxy-4,7-dioxo-1a,2,2a,4,5,6,7,10,11,19,20,21,22,23,23a,23b-hexadecahydro-1H,9H-8,11-methanocyclopropa[4′,5′]cyclopenta[1′,2′:18,19][1,10,3,6]dioxadiazacyclononadecino[11,12-b]quinoxaline-9-carboxamide]: the EC50 in assay [1] came out at 1.5 nM; in assay [2], 1 nM; in assay [3], 7.1 nM; in assay [4], 1 nM; in assay [5], 0.61 nM; in assay [6] it was 1.1 nM. The Ki at NS3 genotype 1b protease came to 0.02 nM.

Regarding `COc1ccc2nc3c(nc2c1)O[C@@H]1C[C@@H](C(=O)N[C@]2(C(=O)NS(=O)(=O)C4(C)CC4)C[C@H]2C(F)F)N(C1)C(=O)[C@H](C(C)(C)C)NC(=O)O[C@@H]1C[C@@H]2C[C@@H]2[C@H]1CCCCC3` [Example 2, (1aS,2aR,6S,9S,11R,23aR,23bS)-6-tert-butyl-N-[(1R,2R)-2-(difluoromethyl)-1-{[(1-methylcyclopropyl)sulfonyl]carbamoyl}cyclopropyl]-15-methoxy-4,7-dioxo-1a,2,2a,4,5,6,7,10,11,19,20,21,22,23,23a,23b-hexadecahydro-1H,9H-8,11-methanocyclopropa[4′,5′]cyclopenta[1′,2′18,19][1,10,3,6]dioxadiazacyclononadecino[11,12-b]quinoxaline-9-carboxamide], the EC50 turned out to be 1.4 nM in assay [1]; 1.2 nM in assay [2]; 5.1 nM in assay [3]; 1.1 nM in assay [4]; 0.74 nM in assay [5]; 1.1 nM in assay [6]. The affinity on NS3 genotype 1b protease, expressed as Ki, was 0.02 nM.

With `COc1ccc2nc3c(nc2c1)O[C@@H]1C[C@@H](C(=O)N[C@]2(C(=O)NS(=O)(=O)C4CC4)C[C@H]2CC(F)F)N(C1)C(=O)[C@H](C(C)(C)C)NC(=O)O[C@@H]1C[C@@H]2C[C@@H]2[C@H]1CCCCC3` [Example 3, (1aS,2aR,6S,9S,11R,23aR,23bS)-6-tert-butyl-N-[(1R,2S)-1-[(cyclopropylsulfonyl)carbamoyl]-2-(2,2-difluoroethyl)cyclopropyl]-15-methoxy-4,7-dioxo-1a,2,2a,4,5,6,7,10,11,19,20,21,22,23,23a,23b-hexadecahydro-1H,9H-8,11-methanocyclopropa[4′,5′]cyclopenta[1′,2′:18,19][1,10,3,6]dioxadiazacyclononadecino[11,12-b]quinoxaline-9-carboxamide], the EC50 turned out to be 11 nM in assay [1]; 3.4 nM in assay [2]; 67 nM in assay [3]; 5.1 nM in assay [4]; 2.9 nM in assay [5]; 3.8 nM in assay [6]. On NS3 genotype 1b protease, this compound registered a Ki of 0.03 nM.

As for `COc1ccc2nc3c(nc2c1)O[C@@H]1C[C@@H](C(=O)N[C@]2(C(=O)NS(=O)(=O)C4CC4)C[C@H]2C(F)F)N(C1)C(=O)[C@H](C(C)(C)C)NC(=O)O[C@@H]1[C@H]2CC[C@H](C2)[C@H]1CCCCC3` [Example 4, (1R,4S,4aR,8S,11S,13R,25aR)-8-tert-butyl-N-[(1R,2R)-1-[(cyclopropylsulfonyl)carbamoyl]-2-(difluoromethyl)cyclopropyl]-17-methoxy-6,9-dioxo-2,3,4,4a,6,7,8,9,12,13,21,22,23,24,25,25a-hexadecahydro-1H,11H-1, 4:10,13-dimethanoquinoxalino[2,3-k][1,10,3,6]benzodioxadiazacyclononadecine-11-carboxamide], the EC50 in assay [1] came to 27 nM; in assay [2], 3.1 nM; in assay [3], 63 nM; in assay [4] it was 2.6 nM; in assay [5], 1.2 nM; in assay [6], 4.3 nM. The same compound came in with a Ki on NS3 genotype 1b protease of 0.02 nM.
